Literature values, collected in patent publication US9717712B2, “Combinations comprising tricyclohexadecahexaene derivatives for use in the treatment of hepatitis C virus” (BRISTOL-MYERS SQUIBB COMPANY, priority 2013, dated 2017).
Where two headings read alike, the source gives them in different places.

System: HCV genotype 1a variant with glutamine 30 changed to glutamate in the NS5A protein (Q30E)
Settings: genotype 1a Q30E replicon
[1] = single agent, read-out: EC50, compound titrated singly

SMILES: COC(=O)N[C@H](C(=O)N1CCC[C@H]1c1nc(-c2ccc(-c3ccc(-c4c[nH]c([C@@H]5CCCN5C(=O)[C@@H](NC(=O)OC)C(C)C)n4)cc3)cc2)c[nH]1)C(C)C [BMS-790052]
- reciprocal synergistic inhibitory effect for the combination (BMS-790052 titrated with P-55 fixed at 200 nM): ~100 fold
- EC50 (P-55 fixed at 200 nM, read-out: EC50 of BMS-790052 in the presence of a fixed amount of P-55): ~2 nM
- EC50 [1]: ~200 nM

SMILES: CC(C)CC(=O)N[C@H](c1ncc(-c2ccc(-c3ccc(-c4cnc([C@@H](NC(=O)CC(C)C)C(C)C)[nH]4)cc3)cc2)[nH]1)C(C)C [Compound P-55]
- EC50 (BMS-790052 fixed at 200 nM, read-out: EC50 of P-55 in the presence of a fixed amount of BMS-790052): ~2 nM
- synergistic inhibitory effect for the combination (P-55 titrated with BMS-790052 fixed at 200 nM): > 100 fold
- EC50 [1]: > 200 nM
